Where two headings read alike, the source gives them in different places.
Assays:
Type in all cases: in vivo
[1] = test system: pigweed (Amaranthus retroflexus); assay: Test A pre-/postemergence greenhouse herbicide test, visual injury rating 0-100; settings: for pest or weed control at 500 g/ha: 500 g ai/ha
How it was run: (§1)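 Seeds sown in loam soil–sand blend; preemergence directed soil spray and, simultaneously, postemergence spray on plants 2 to 10 cm tall at one- to two-leaf stage. Compounds formulated in non-phytotoxic solvent mixture with surfactant. Injury rated visually versus untreated controls after ~10 days in greenhouse.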

[2] = test system: large (Lg) crabgrass (Digitaria sanguinalis); assay: as above; settings: for pest or weed control at 500 g/ha: 500 g ai/ha
How it was run: as §1

[3] = test system: giant foxtail (Setaria faberii); assay: as above; settings: for pest or weed control at 500 g/ha: 500 g ai/ha
How it was run: as §1

[4] = test system: wheat (Triticum aestivum); assay: as above; settings: for plant injury at 500 g/ha: 500 g ai/ha
How it was run: as §1

[5] = test system: velvetleaf (Abutilon theophrasti); assay: as above; settings: for pest or weed control at 500 g/ha: 500 g ai/ha
How it was run: as §1

corn (Zea mays) [6] = assay: as above; settings: for plant injury at 500 g/ha: 500 g ai/ha
How it was run: as §1

[7] = test system: morningglory (Ipomoea spp.); assay: as above; settings: for pest or weed control at 500 g/ha: 500 g ai/ha
How it was run: as §1

[8] = test system: barnyardgrass (Echinochloa crus-galli); assay: as above; settings: for pest or weed control at 500 g/ha: 500 g ai/ha
How it was run: as §1

[9] = test system: pigweed (Amaranthus retroflexus); assay: Test C pre-/postemergence greenhouse test, plant response rating 0-100; settings: Amaranthus retroflexus; for pest or weed control at 62 g/ha: 62 g ai/ha; for pest or weed control at 125 g/ha: 125 g ai/ha; for pest or weed control at 250 g/ha: 250 g ai/ha; for pest or weed control at 500 g/ha: 500 g ai/ha
How it was run: (§2)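 Formulated in solvent with surfactant, test chemicals were sprayed on seeded loam/sand pots and, concurrently, on young plants 2–18 cm tall. Evaluation: visual, versus controls, day 13–15.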

[10] = test system: velvetleaf (Abutilon theophrasti); assay: as above; settings: Abutilon theophrasti; for pest or weed control at 62 g/ha: 62 g ai/ha; for pest or weed control at 125 g/ha: 125 g ai/ha; for pest or weed control at 250 g/ha: 250 g ai/ha; for pest or weed control at 500 g/ha: 500 g ai/ha
How it was run: as §2

[11] = test system: ragweed (common ragweed, Ambrosia elatior); assay: as above; settings: Ambrosia artemisiifolia; for pest or weed control at 62 g/ha: 62 g ai/ha; for pest or weed control at 125 g/ha: 125 g ai/ha; for pest or weed control at 250 g/ha: 250 g ai/ha; for pest or weed control at 500 g/ha: 500 g ai/ha
How it was run: as §2

corn (Zea mays) [12] = assay: as above; settings: Zea mays; for Corn plant response rating (crop injury, 0 = no effect, 100 = complete kill) at 250 g/ha: 250 g ai/ha; for Corn plant response rating (crop injury, 0 = no effect, 100 = complete kill) at 500 g/ha: 500 g ai/ha
How it was run: as §2

[13] = test system: Italian ryegrass (Lolium multiflorum); assay: as above; settings: Lolium multiflorum; for pest or weed control at 62 g/ha: 62 g ai/ha; for pest or weed control at 125 g/ha: 125 g ai/ha; for pest or weed control at 250 g/ha: 250 g ai/ha; for pest or weed control at 500 g/ha: 500 g ai/ha
How it was run: as §2

[14] = post-emergence, Postemergence, read-out: Plant response rating (0 to 100), Pigweed
[15] = post-emergence, Postemergence, scale 0 to 100
[16] = pre-emergence, Preemergence, read-out: Plant response rating, Pigweed
[17] = post-emergence, Postemergence, read-out: Plant response rating (0 to 100), Velvetleaf
[18] = pre-emergence, Preemergence, read-out: Plant response rating, Velvetleaf
[19] = post-emergence, Postemergence, read-out: Plant response rating (0 to 100), Ragweed
[20] = pre-emergence, Preemergence, read-out: Plant response rating, Ragweed
[21] = post-emergence, Postemergence, read-out: Plant response rating (0 to 100), Ryegrass, Italian
[22] = pre-emergence, Preemergence, read-out: Plant response rating, Ryegrass, Italian

CCOC(OCC)(c1ccccc1)c1c[nH]nc1-c1cc(Cl)cc(Cl)c1 [Compound 14, 3-(3,5-dichlorophenyl)-4-(diethoxyphenylmethyl)-1H-pyrazole]
pest or weed control at 125 g/ha ([1]; Amaranthus retroflexus, post-emergence, 240 h, Postemergence, 125 g ai/ha, read-out: Plant response rating (0 to 100 scale), Pigweed): 80% | pest or weed control at 500 g/ha ([1]; Amaranthus retroflexus, post-emergence, 240 h, Postemergence, read-out: Plant response rating (0 to 100 scale), Pigweed): 90% | pest or weed control at 500 g/ha ([1]; Amaranthus retroflexus, pre-emergence, 240 h, Preemergence, read-out: Plant response rating (0 to 100 scale), Pigweed): 100% | Pigweed plant response rating (0 = no effect, 100 = complete control) ([1]; Preemergence, 125 g ai/ha): 70 | pest or weed control at 125 g/ha ([2]; Digitaria sanguinalis, post-emergence, 240 h, Postemergence, 125 g ai/ha, read-out: Plant response rating (0 to 100 scale), Crabgrass, Large): 0% | pest or weed control at 500 g/ha ([2]; Digitaria sanguinalis, post-emergence, 240 h, Postemergence, read-out: Plant response rating (0 to 100 scale), Crabgrass, Large): 0% | pest or weed control at 500 g/ha ([2]; Digitaria sanguinalis, pre-emergence, 240 h, Preemergence, read-out: Plant response rating (0 to 100 scale), Crabgrass, Large): 0% | Crabgrass, Large plant response rating (0 = no effect, 100 = complete control) ([2]; Preemergence, 125 g ai/ha): 0 | Foxtail, Giant plant response rating (0 = no effect, 100 = complete control) ([3]; Preemergence, 125 g ai/ha): 0 | pest or weed control at 125 g/ha ([3]; Setaria faberi, post-emergence, 240 h, Postemergence, 125 g ai/ha, read-out: Plant response rating (0 to 100 scale), Foxtail, Giant): 0% | pest or weed control at 500 g/ha ([3]; Setaria faberi, post-emergence, 240 h, Postemergence, read-out: Plant response rating (0 to 100 scale), Foxtail, Giant): 0% | pest or weed control at 500 g/ha ([3]; Setaria faberi, pre-emergence, 240 h, Preemergence, read-out: Plant response rating (0 to 100 scale), Foxtail, Giant): 0% | Wheat plant response rating (0 = no effect, 100 = complete control) ([4]; Preemergence, 125 g ai/ha): 0 | plant injury at 125 g/ha ([4]; Triticum aestivum, post-emergence, 240 h, Postemergence, 125 g ai/ha, read-out: Plant response rating (0 to 100 scale), Wheat): 0% | plant injury at 500 g/ha ([4]; Triticum aestivum, post-emergence, 240 h, Postemergence, read-out: Plant response rating (0 to 100 scale), Wheat): 0% | plant injury at 500 g/ha ([4]; Triticum aestivum, pre-emergence, 240 h, Preemergence, read-out: Plant response rating (0 to 100 scale), Wheat): 0% | pest or weed control at 125 g/ha ([5]; Abutilon theophrasti, post-emergence, 240 h, Postemergence, 125 g ai/ha, read-out: Plant response rating (0 to 100 scale), Velvetleaf): 80% | pest or weed control at 500 g/ha ([5]; Abutilon theophrasti, post-emergence, 240 h, Postemergence, read-out: Plant response rating (0 to 100 scale), Velvetleaf): 90% | pest or weed control at 500 g/ha ([5]; Abutilon theophrasti, pre-emergence, 240 h, Preemergence, read-out: Plant response rating (0 to 100 scale), Velvetleaf): 100% | Velvetleaf plant response rating (0 = no effect, 100 = complete control) ([5]; Preemergence, 125 g ai/ha): 50 | Corn plant response rating (0 = no effect, 100 = complete control) (corn (Zea mays) [6]; Preemergence, 125 g ai/ha): 0 | plant injury at 125 g/ha (corn (Zea mays) [6]; Zea mays, post-emergence, 240 h, Postemergence, 125 g ai/ha, read-out: Plant response rating (0 to 100 scale), Corn): 0% | plant injury at 500 g/ha (corn (Zea mays) [6]; Zea mays, post-emergence, 240 h, Postemergence, read-out: Plant response rating (0 to 100 scale), Corn): 0% | plant injury at 500 g/ha (corn (Zea mays) [6]; Zea mays, pre-emergence, 240 h, Preemergence, read-out: Plant response rating (0 to 100 scale), Corn): 0% | pest or weed control at 125 g/ha ([7]; Ipomoea, post-emergence, 240 h, Postemergence, 125 g ai/ha, read-out: Plant response rating (0 to 100 scale), Morningglory): 0% | pest or weed control at 500 g/ha ([7]; Ipomoea, post-emergence, 240 h, Postemergence, read-out: Plant response rating (0 to 100 scale), Morningglory): 0% | pest or weed control at 500 g/ha ([7]; Ipomoea, pre-emergence, 240 h, Preemergence, read-out: Plant response rating (0 to 100 scale), Morningglory): 0% | Morningglory plant response rating (0 = no effect, 100 = complete control) ([7]; Preemergence, 125 g ai/ha): 0 | pest or weed control at 125 g/ha ([8]; Echinochloa crus-galli, post-emergence, 240 h, Postemergence, 125 g ai/ha, read-out: Plant response rating (0 to 100 scale), Barnyardgrass): 0% | pest or weed control at 500 g/ha ([8]; Echinochloa crus-galli, post-emergence, 240 h, Postemergence, read-out: Plant response rating (0 to 100 scale), Barnyardgrass): 0% | pest or weed control at 500 g/ha ([8]; Echinochloa crus-galli, pre-emergence, 240 h, Preemergence, read-out: Plant response rating (0 to 100 scale), Barnyardgrass): 0% | Barnyardgrass plant response rating (0 = no effect, 100 = complete control) ([8]; Preemergence, 125 g ai/ha): 0 | pest or weed control at 62 g/ha [9, 14]: 85% | pest or weed control at 125 g/ha [9, 14]: 98% | pest or weed control at 250 g/ha [9, 15]: 100% | pest or weed control at 500 g/ha [9, 15]: 100% | pest or weed control at 62 g/ha [9, 16]: 98% | pest or weed control at 125 g/ha [9, 16]: 100% | pest or weed control at 250 g/ha ([9]; pre-emergence, Preemergence): 100% | pest or weed control at 500 g/ha ([9]; pre-emergence, Preemergence): 100% | pest or weed control at 62 g/ha [10, 17]: 75% | pest or weed control at 125 g/ha [10, 17]: 75% | pest or weed control at 250 g/ha [10, 15]: 80% | pest or weed control at 500 g/ha [10, 15]: 85% | pest or weed control at 62 g/ha [10, 18]: 75% | pest or weed control at 125 g/ha [10, 18]: 50% | pest or weed control at 250 g/ha ([10]; pre-emergence, Preemergence): 85% | pest or weed control at 500 g/ha ([10]; pre-emergence, Preemergence): 98% | pest or weed control at 62 g/ha [11, 19]: 60% | pest or weed control at 125 g/ha [11, 19]: 70% | pest or weed control at 250 g/ha [11, 15]: 75% | pest or weed control at 500 g/ha [11, 15]: 80% | pest or weed control at 62 g/ha [11, 20]: 75% | pest or weed control at 125 g/ha [11, 20]: 100% | pest or weed control at 250 g/ha ([11]; pre-emergence, Preemergence): 100% | pest or weed control at 500 g/ha ([11]; pre-emergence, Preemergence): 100% | plant injury at 62 g/ha (corn (Zea mays) [12]; post-emergence, Postemergence, 62 g ai/ha): 0% | plant injury at 125 g/ha (corn (Zea mays) [12]; post-emergence, Postemergence, 125 g ai/ha): 0% | Corn plant response rating (crop injury, 0 = no effect, 100 = complete kill) at 250 g/ha (corn (Zea mays) [12]; [15]): 5% | Corn plant response rating (crop injury, 0 = no effect, 100 = complete kill) at 500 g/ha (corn (Zea mays) [12]; [15]): 5% | Corn plant response rating (crop injury, 0 = no effect, 100 = complete kill) at 62 g/ha (corn (Zea mays) [12]; pre-emergence, Preemergence, 62 g ai/ha): 0% | Corn plant response rating (crop injury, 0 = no effect, 100 = complete kill) at 125 g/ha (corn (Zea mays) [12]; pre-emergence, Preemergence, 125 g ai/ha): 0% | Corn plant response rating (crop injury, 0 = no effect, 100 = complete kill) at 250 g/ha (corn (Zea mays) [12]; pre-emergence, Preemergence): 0% | Corn plant response rating (crop injury, 0 = no effect, 100 = complete kill) at 500 g/ha (corn (Zea mays) [12]; pre-emergence, Preemergence): 0% | pest or weed control at 62 g/ha [13, 21]: 0% | pest or weed control at 125 g/ha [13, 21]: 0% | pest or weed control at 250 g/ha [13, 15]: 0% | pest or weed control at 500 g/ha [13, 15]: 5% | pest or weed control at 62 g/ha [13, 22]: 0% | pest or weed control at 125 g/ha [13, 22]: 0% | pest or weed control at 250 g/ha ([13]; pre-emergence, Preemergence): 0% | pest or weed control at 500 g/ha ([13]; pre-emergence, Preemergence): 0%

— patent US10167262B2, “Herbicidal substituted 3-arylpyrazoles” (FMC CORPORATION, priority 2014, dated 2019)
